“Also recorded” adds a separate entry of the source.
Experiments:
[1] = test system: active form of Notch1 (NICD); test: NICD Western blot (VAL1744) in DL4:N1 HeLa coculture; type: cell-based, human; details: DL4- and N1-HeLa coculture, DAPT 10 μM, 24 hours
Description: Cells were lysed in RIPA buffer (50 mM Tris.Cl, pH 7.5, 150 mM NaCl, 1% nonidet P-40, 0.5% sodium deoxycholate and 0.1% SDS) for 30 minutes at 4° C. Lysed cells were centrifuged to remove the debris at 14000 rpm at 4° C. Supernatant was transferred to a new eppendorf tube. The protein concentration was determined by Bradford assay using spectrophotometer (Ultrospec 3000 pro). 40 μg of protein were denatured in 1×SDS gel loading buffer (100 mM Tris.Cl, pH 6.8, 200 mM DTT, 4% SDS, 0.2% bromophenol, 20% glycerol) by heating at 99° C. for 5 minutes. Denatured protein samples were stored on ice until loading on to the acrylamide gel. The samples were run on 8% or 10% acrylamide gel in Tris-glycine electrophoresis buffer (25 mM Tris, 250 mM glycine, 0.1% SDS). […]
For immunoblotting, membranes were blocked with 5% milk and incubated overnight with primary antibodies at 4° C. […] Signal was detected with Super Signal West chemiluminescent substrate (Thermo Scientific, catalog number 34077).
To assess the Notch pathway activation potential of the stable cell lines, DL4 and N1 stable HeLa cells (DL4-HeLa and N1-HeLa, respectively) were cocultured in 1:1 ratio in a 6-well plate and grown to confluency. […] On the other hand, in the absence of ligand (DL4-HeLa cells) or in the presence of GSI (DAPT) NICD levels were not detected, indicating a loss of Notch signalling (data not shown). […]

[2] = test system: Notch target genes Hes1, cMyc and Dtx1; NICD; test: Notch target gene expression in human cancer cell lines (qRT-PCR, Western blot); type: cell-based
Description: Total RNA was extracted from cells using TRIzol® extraction kit (Invitrogen). Briefly, 1×10^6 cells were washed with ice-cold 1×PBS and lysed in 1 ml of TRIzol® solution for 5 minutes at room temperature to dissociate nucleoprotein complexes. Lysed cells were then treated with 200 μl of chloroform and shaked vigorously for 15-30 seconds and incubated at room temperature for 2-3 minutes. The samples were centrifuged at 14000 rpm using Eppendorf table top centrifuge for 10 minutes at 4° C. Following centrifugation, upper aqueous phase was transferred to new eppendorf tubes. […]
Total RNA extracted from the cell was used to synthesize cDNA by reverse transcription reaction. […] RNA concentration was measured using NanoDrop®ND-1000 spectrophotometer (Witec AG) and 500 ng of total RNA was mixed with a 10 mM mix of dNTPs and 100 ng of random primers. […]
Cells were lysed in RIPA buffer (50 mM Tris.Cl, pH 7.5, 150 mM NaCl, 1% nonidet P-40, 0.5% sodium deoxycholate and 0.1% SDS) for 30 minutes at 4° C. […] The protein concentration was determined by Bradford assay using spectrophotometer (Ultrospec 3000 pro). […]
For immunoblotting, membranes were blocked with 5% milk and incubated overnight with primary antibodies at 4° C. […] Signal was detected with Super Signal West chemiluminescent substrate (Thermo Scientific, catalog number 34077). […]

[3] = Body weight changes in mice; type: in vivo, mouse; details: 25 mg/kg, 5 consecutive days
Description: C57B16 mice were intra peritoneal (i.p) injected with oil or 25 mg/kg of I3 or 10 mg/kg of CPA, once a day for 5-7 days. Mice were weighed using a weighing scale on day 0, day 3 and day 5. On day 8, intestinal tissue, spleen and thymus were harvested for analyses.
In in vitro culture assays, chemical compound 6-(4-Tert-Butylphenoxy)Pyridin-3-Amine (I3) was able to block Notch1 and Notch2 mediated pathway activation. Therefore, Applicants hypothesized that treatment of mice with 6-(4-Tert-Butylphenoxy)Pyridin-3-Amine (I3) may lead to a goblet cell metaplasia of the intestine. To test this hypothesis, mice were intra peritoneally (i.p) injected with 25 mg/kg of 6-(4-Tert-Butylphenoxy)Pyridin-3-Amine (I3) for 7 consecutive days. On day 8, animals were sacrificed and intestinal tissues were fixed and embedded in paraffin. Histological analyses were carried out using Alcian blue to stain for goblet cells. […] Similarly, the effect of 6-(4-Tert-Butylphenoxy)Pyridin-3-Amine (I3) on body weight changes was also monitored. Mice were injected for 5 consecutive days with 25 mg/kg of 6-(4-Tert-Butylphenoxy)Pyridin-3-Amine (I3) and the changes in body mass were recorded.

RPMI8402 = test: Cell cycle analysis (Ki67 and Hoechst stain), RPMI8402; type: cell-based, human; details: 10 μM
Description: FIGS. 6A-6D show 6-(4-Tert-Butylphenoxy)Pyridin-3-Amine (I3) induces G0/G1 cell cycle arrest and apoptosis in human T cell acute lymphoblastic leukemia cell lines and human breast cancer cell line HCC1187. […] Percentage of Annexin V positive (apoptotic) cell population was measured using flow cytometry.
In addition to induction of apoptosis, the proliferative arrest observed in 6-(4-Tert-Butylphenoxy)Pyridin-3-Amine (I3) treated human leukemic cell lines and breast cancer cell line also appears to be due to cell cycle arrest in G0/G1 phase of the cell cycle. Leukemic cell lines (RPMI8402, KOPTK1 and TALL1) and breast cancer cell lines were treated with 6-(4-Tert-Butylphenoxy)Pyridin-3-Amine (I3) for 48 hours and cell cycle status was determined using Ki67 and Hoechst stain.

Compound	NICD levels (Western blot) [1]	NICD protein levels ([2]; RPMI 8402, HPB ALL, KOPTK1, 24 hours, Western blot)	expression of Notch target genes Hes1, cMyc and Dtx1 (mRNA and protein) ([2]; RPMI 8402, HPBALL, KOPTK1 and PANC1, 24 hours)	body weight [3]	cell cycle status (RPMI8402; 48 hours)	increase in cells arrested in G0/G1 phase of the cell cycle (RPMI8402; stated jointly for RPMI8402, KOPTK1 and TALL1)
C[C@H](NC(=O)Cc1cc(F)cc(F)c1)C(=O)N[C@H](C(=O)OC(C)(C)C)c1ccccc1 [DAPT, N—[N-(3,5-difluorophenacetyl-Lalanyl)]-(S)-phenylglycine t-butyl ester, reference compound]	can be blocked by DAPT treatment					
CC(C)(C)c1ccc(Oc2ccc(N)cn2)cc1 [I3, 6-(4-Tert-Butylphenoxy)Pyridin-3-Amine]		reduced levels of NICD	induced a statistically significant downregulation of Notch target genes; also recorded: inhibits Notch signalling and downregulates its target genes in human cancer cell lines; also recorded: downregulation of Notch target genes in human T-ALL cell lines	did not cause a loss in the body weight	induces an arrest in the G0/G1 phase of the cell cycle	20-30%

Source: patent publication US10054581B1, “Inhibitors of notch signaling pathway and use thereof in treatment of cancers” (Ecole Polytechnique Federale de Lausanne (EPFL), priority 2011, dated 2018)
